For one data set, the target named is T1, Renin (Homo sapiens) (UniProt P00797).
T1 sequence (whole entry): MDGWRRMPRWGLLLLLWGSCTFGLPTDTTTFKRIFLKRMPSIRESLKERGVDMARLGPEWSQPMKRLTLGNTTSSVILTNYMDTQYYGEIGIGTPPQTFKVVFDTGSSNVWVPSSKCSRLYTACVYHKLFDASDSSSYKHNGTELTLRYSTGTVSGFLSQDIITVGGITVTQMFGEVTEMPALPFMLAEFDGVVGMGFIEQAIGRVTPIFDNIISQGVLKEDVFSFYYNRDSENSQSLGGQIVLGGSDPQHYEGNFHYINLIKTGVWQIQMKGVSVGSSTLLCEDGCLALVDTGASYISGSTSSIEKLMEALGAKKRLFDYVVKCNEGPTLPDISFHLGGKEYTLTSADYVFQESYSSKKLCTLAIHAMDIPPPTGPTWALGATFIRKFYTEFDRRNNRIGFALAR
Put plainly: Inhibition of human recombinant renin expressed in FreeStyle 293 expression system at 100 uM using FITC-epsilonAcp-Asp-Arg-Val-Tyr-Ile-His-Pro-Phe-His-Leu-Val-Ile-His-Asn-Arg-NH2 as substrate preincubated for 15 mins followed by substrate addition measured after 30 mins by microchip type capillary electrophoresis method relative to control.

Another data set deals with T2, Renin (Homo sapiens, UniProt P00797).
T2 sequence (P00797 whole entry): T1 sequence (whole entry)
In words: Inhibition of human recombinant renin expressed in FreeStyle 293 expression system using FITC-epsilonAcp-Asp-Arg-Val-Tyr-Ile-His-Pro-Phe-His-Leu-Val-Ile-His-Asn-Arg-NH2 as substrate preincubated for 15 mins followed by substrate addition measured after 30 mins by microchip type capillary electrophoresis method.

Data set [1] is described as follows: Aqueous solubility of the compound in pH 6.8 Japanese pharmacopoeia second fluid by HPLC analysis. In kind it is ADME.
Data set [2] in a line: Intrinsic clearance in human liver microsomes assessed per mg of protein at 1 umol/l after 15 to 30 mins in presence of NADPH-generating system by LC/MS/MS analysis. The format is ADME. To be noted: read-out: CLH.
A further data set addresses CYP3A4 (Homo sapiens, UniProt P08684). In words: Inhibition of CYP3A4 in human liver microsomes using testosterone as substrate assessed as 6beta-hydroxytestosterone formation at 10 uM after 60 mins by LC/MS/MS analysis relative to control. In kind it is ADME. Conditions: probe testosterone.
The nature of data set [3]: Cytotoxicity against human HepG2 cells assessed as ATP contents at 30 uM after 1 day by ATPLiteTM-M assay relative to control. In kind it is toxicity, cell-based. Conditions: read-out: Activity.
In another data set the target is hERG (KCNH2) (Homo sapiens, UniProt Q12809). Put plainly: Inhibition of human ERG expressed in CHO cells assessed as suppression of peak tail currents incubated for 5 mins by patch clamp method. Conditions: CHO cells that express human ERG. In kind it is cell-based.
Sequence of hERG (KCNH2) (Q12809 whole entry): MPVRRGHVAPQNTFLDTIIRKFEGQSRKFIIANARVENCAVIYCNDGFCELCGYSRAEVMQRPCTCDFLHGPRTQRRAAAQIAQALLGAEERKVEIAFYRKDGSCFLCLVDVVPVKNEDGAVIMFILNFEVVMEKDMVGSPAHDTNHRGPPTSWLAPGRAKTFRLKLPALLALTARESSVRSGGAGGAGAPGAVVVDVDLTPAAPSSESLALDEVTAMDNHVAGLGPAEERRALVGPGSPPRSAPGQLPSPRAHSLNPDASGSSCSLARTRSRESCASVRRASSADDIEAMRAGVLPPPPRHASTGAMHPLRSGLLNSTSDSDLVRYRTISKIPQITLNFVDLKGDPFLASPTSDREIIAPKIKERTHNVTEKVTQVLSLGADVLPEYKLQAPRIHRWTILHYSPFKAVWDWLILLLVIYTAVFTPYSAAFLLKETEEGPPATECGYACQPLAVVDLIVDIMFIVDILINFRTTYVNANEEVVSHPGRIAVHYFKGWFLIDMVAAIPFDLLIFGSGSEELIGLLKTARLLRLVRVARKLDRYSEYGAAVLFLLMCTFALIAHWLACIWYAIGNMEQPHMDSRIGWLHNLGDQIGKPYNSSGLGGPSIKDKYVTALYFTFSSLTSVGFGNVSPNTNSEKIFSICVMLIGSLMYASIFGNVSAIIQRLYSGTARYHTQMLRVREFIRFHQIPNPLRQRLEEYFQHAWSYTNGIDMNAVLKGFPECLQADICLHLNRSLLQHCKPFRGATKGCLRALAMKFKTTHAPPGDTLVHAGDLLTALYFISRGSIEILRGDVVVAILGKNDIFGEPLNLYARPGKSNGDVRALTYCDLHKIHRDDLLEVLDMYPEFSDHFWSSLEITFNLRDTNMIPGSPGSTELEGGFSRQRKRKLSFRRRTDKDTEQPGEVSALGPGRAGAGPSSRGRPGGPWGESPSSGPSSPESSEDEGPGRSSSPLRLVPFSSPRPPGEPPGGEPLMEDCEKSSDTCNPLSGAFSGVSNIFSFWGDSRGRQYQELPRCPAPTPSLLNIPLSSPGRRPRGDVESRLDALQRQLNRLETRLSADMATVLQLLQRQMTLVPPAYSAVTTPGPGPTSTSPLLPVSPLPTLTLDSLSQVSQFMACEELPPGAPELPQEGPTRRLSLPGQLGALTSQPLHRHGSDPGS

Converted amounts (≈) assume the structure as drawn.

This note sets out measurements from ChEMBL document CHEMBL3856281, “Novel approach of fragment-based lead discovery applied to renin inhibitors” (Bioorg Med Chem, 2016).

Sequence of CYP3A4 (P08684 whole entry): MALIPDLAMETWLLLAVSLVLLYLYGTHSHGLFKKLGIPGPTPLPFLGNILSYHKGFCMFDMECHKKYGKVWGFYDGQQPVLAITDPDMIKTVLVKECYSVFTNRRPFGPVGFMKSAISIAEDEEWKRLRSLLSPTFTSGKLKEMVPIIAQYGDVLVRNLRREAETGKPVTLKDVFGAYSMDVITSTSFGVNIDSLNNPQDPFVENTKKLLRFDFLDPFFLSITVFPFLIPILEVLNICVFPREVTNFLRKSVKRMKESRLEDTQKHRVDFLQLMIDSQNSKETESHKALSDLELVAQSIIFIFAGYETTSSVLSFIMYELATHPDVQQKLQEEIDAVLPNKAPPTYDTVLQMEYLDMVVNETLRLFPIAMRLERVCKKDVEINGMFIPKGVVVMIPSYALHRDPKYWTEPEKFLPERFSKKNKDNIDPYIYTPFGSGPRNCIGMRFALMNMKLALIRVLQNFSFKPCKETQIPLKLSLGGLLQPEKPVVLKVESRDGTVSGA

In the case of `Cc1ccc(C(=O)NC(C)(C)c2ccccc2)c(NCc2ccco2)n1`, the inhibition on Renin (Homo sapiens) was below 30%.
For the compound `Nc1ncnc2sc3c(c12)CCCC3`, the 50% inhibitory concentration (IC50) at Renin is above 300 µM.
As for `NCc1ccco1`, the IC50 at Renin was above 300 µM.
Consider `CCN(CC)C(=O)c1ccc(C)nc1NCc1ccco1`, for which the inhibition at Renin (Homo sapiens) was found to be 31%.
For the compound `Cc1ccc(C(=O)N2CCCCCC2)c(NCc2ccco2)n1`, on Renin (Homo sapiens), the inhibition turned out to be 70%. Besides, the concentration in solution in data set [1] (solubility) came to 50 µg/mL (≈ 160 µM). Further, the microsomal CLint at 1 µM in data set [2] worked out at 85 µL/min/mg. Moreover, on CYP3A4, the inhibition at 1 h, 10 µM was determined as 35.6%. In addition, the viability at 24 h, 30 µM in data set [3] is 91.6%. Besides, the inhibition at 5 min at hERG (KCNH2) was determined as 7.5%.
In data set [1], `c1coc(CNc2ncnc3sc4c(c23)CCCC4)c1` registered a solubility of 5.2 µg/mL (≈ 18.2 µM). Further, the microsomal CLint at 1 µM in data set [2] was 187 µL/min/mg. Also, at CYP3A4, the inhibition at 1 h, 10 µM was 70.2%. Moreover, in data set [3], the viability at 24 h, 30 µM was found to be 31.4%. Also, the inhibition at 5 min on hERG (KCNH2) came to 62.8%.
Regarding `CCC1CCCCN1C(=O)c1ccc(C)nc1NCc1ccco1` (stereo not drawn), the IC50 on Renin is 11 µM. Further, on Renin (Homo sapiens), the inhibition was 86%.
Consider `Clc1cncc(NCc2ccco2)n1`, for which the inhibition on Renin (Homo sapiens) was found to be 65%.
